In article PMC9814340, “CDK8/19 inhibition plays an important role in pancreatic β-cell induction from human iPSCs” (Stem Cell Research & Therapy, 2023):
“Also recorded” adds a separate entry of the source. Like-named read-outs stand apart in the source and are kept apart here.

Key:
[1] = system: β-cells (INS+NKX6.1+) differentiated from human iPSC line Ff-I14-s04; experiment: β-cell induction in iPIC differentiation from hiPSCs (compound at stages 5-7), flow cytometry; format: cell-based; settings: for proportion of β-cells (INS+NKX6.1+), representative dot plot: Fig. 3a
Experimental: For differentiation culture to generate iPICs, we used 2D monolayer to static aggregate culture based on our previous report and 3D stirred-floating aggregate culture. The details of the typical 3D floating culture were as follows.
PD-166866 (1 μM, Merck Millipore) was added from day 4 of stage 6.
Stage 7 medium was based on a previous report with our original modifications. […] To generate iPICs for implantation, cells were dissociated and re-sized in an Elplasia 6-well microwell plate (Corning Incorporated, Corning, NY, USA) or a gas-permeable microwell culture bag (Toyo Seikan Group Holdings, Ltd., Yokohama, Japan) and cultured in the stage 7 medium.
The differentiation efficiency of β-cells (INS^+NKX6.1^+) and endocrine cells (CHGA^+) was analyzed using immunostaining methods and flow cytometry on an LSRFortessa X20 instrument (BD Corporation, Franklin Lakes, NJ, USA), as described previously. The primary antibodies used are detailed in Additional file 1: Table S1. Secondary antibodies were conjugated to Alexa Fluor 488, 546, 568, and 647 of the appropriate species (Thermo Fisher Scientific or Jackson ImmunoResearch, West Grove, PA, USA).

[2] = system: Salmonella typhimurium TA100, TA1535, TA98, and TA1537, and Escherichia coli WP2uvrA; experiment: Ames mutagenicity assay (bacterial reverse mutation test), five strains, absence of rat liver S9; settings: for Ames Mutagenicity: result in words, absence of rat liver S9, 78.1-5000 μg/plate
Source text: (§1) Salmonella typhimurium TA100, TA1535, TA98, and TA1537, and Escherichia coli WP2uvrA were used to detect either frameshift mutations (TA98 and TA1537) or base pair substitutions (TA100, TA1535, and WP2uvrA). These strains are widely used and recommended for use in ICH S2(R1) for the bacterial reversion assay.
(§2) In the current study, rat liver S9 fraction, […], was not included because the mutagenicity of compounds should be assessed when simulating cell cultures but not in vivo after metabolism by liver enzymes. Briefly, each tester strain was mixed with seven concentrations (78.1–5000 μg/plate) of each compound and preincubated for 20 min in test tubes. Two plates per dose for the tested compounds and positive control group, and four plates per dose for the negative control group were used. Dimethyl sulfoxide (FUJIFILM Wako) was selected as solvent for the tested compounds and used as negative control. […] Following preincubation, semisolid top agar was added to the tubes, and then, the mixtures were overlaid on minimal glucose agar plates. After the overlaid agar solidified, the plates were stored at 37 °C in an incubator for 48 h.
(§3) Cultures were examined for signs of compound precipitation and other abnormal conditions by eye. Subsequently, cytotoxicity (decreased background lawn) was assessed using a stereomicroscope. The number of revertant colonies on the plates was counted using an automatic colony analyzer (CA-11, System Science Co., Ltd., Tokyo, Japan) or manually when counting by the automatic colony analyzer was inappropriate, e.g., when precipitation was observed.

CDK8 [3] = target: T1, CDK8 (Homo sapiens, UniProt P49336); design: Axcelead Drug Discovery Partners (ran the assay); method as in PMID 28392276; settings: cited from earlier work
[4] = system: Salmonella typhimurium TA1537
Source text: as §1, §2, §3

ALK5 = target: T2, ALK5 (Homo sapiens, UniProt P36897); experiment: TR-FRET-based competitive binding kinase profiling assay; settings: Yes/No summary of Fig. 1d; method not given
T2 construct: Axcelead Drug Discovery Partners (ran the assay)
T2 sequence (P36897 34-503): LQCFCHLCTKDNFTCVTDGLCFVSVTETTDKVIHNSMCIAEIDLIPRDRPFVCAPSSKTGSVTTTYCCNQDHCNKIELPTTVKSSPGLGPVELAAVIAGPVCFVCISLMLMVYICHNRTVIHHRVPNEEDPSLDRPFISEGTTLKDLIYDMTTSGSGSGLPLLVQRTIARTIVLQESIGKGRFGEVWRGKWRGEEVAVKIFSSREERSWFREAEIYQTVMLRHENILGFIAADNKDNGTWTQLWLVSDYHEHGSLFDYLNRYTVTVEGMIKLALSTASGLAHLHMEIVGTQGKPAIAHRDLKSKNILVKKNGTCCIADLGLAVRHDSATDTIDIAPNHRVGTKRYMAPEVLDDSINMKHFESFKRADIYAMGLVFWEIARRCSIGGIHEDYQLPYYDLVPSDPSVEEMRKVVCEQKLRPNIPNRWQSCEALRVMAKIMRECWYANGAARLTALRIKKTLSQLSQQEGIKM

CDK19 = CDK19 (Homo sapiens, UniProt Q9BWU1); experiment: biochemical
Experimental: (§4) Briefly, BODIPY-FL- or Cy5-FL-conjugated staurosporine derivative that binds to a highly conserved ATP-binding pocket in kinases was used as a fluorescent probe and tested compounds were applied at 0.1 and 1 μM in competitive binding assays for ~ 350 recombinant protein kinases. TR-FRET fluorescent signals from terbium and BODIPY/Cy5-FL were measured using an EnVision plate reader (PerkinElmer, Waltham, MA, USA), and pIC50 values were extrapolated from the inhibition rate.

CDK8 [5] = target: T1, CDK8; experiment: biochemical
Experimental: as §4

RIPK2 = RIPK2 (Homo sapiens, UniProt O43353); experiment: biochemical
Experimental: as §4

TGFBR2 = TGFBR2 (Homo sapiens, UniProt P37173); experiment: biochemical
Experimental: as §4

TNIK = TNIK (Homo sapiens, UniProt Q9UKE5); experiment: biochemical
Experimental: as §4

T1 sequence (P49336 whole entry, species assumed): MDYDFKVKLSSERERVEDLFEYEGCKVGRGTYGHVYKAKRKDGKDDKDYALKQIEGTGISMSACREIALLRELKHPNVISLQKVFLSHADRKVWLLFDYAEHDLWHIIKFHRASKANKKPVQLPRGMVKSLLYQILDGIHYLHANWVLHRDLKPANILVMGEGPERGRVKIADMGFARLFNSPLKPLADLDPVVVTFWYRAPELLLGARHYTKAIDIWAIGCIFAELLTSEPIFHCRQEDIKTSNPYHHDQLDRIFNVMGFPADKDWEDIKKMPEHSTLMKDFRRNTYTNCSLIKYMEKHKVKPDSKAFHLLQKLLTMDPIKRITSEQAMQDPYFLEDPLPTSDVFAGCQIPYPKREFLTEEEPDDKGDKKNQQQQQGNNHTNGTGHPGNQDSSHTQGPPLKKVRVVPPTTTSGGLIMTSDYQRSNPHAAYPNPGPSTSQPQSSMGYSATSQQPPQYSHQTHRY
T1 sequence (P24863 whole entry partner, species assumed): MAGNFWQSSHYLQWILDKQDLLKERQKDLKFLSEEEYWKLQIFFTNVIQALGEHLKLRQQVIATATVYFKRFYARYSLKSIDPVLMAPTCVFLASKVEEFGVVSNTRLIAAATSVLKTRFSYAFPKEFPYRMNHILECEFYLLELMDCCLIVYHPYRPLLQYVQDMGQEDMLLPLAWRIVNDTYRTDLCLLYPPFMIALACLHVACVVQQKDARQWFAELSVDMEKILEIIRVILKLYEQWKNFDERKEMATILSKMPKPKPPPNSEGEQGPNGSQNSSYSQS
TNIK, sequence (Q9UKE5 whole entry, species assumed): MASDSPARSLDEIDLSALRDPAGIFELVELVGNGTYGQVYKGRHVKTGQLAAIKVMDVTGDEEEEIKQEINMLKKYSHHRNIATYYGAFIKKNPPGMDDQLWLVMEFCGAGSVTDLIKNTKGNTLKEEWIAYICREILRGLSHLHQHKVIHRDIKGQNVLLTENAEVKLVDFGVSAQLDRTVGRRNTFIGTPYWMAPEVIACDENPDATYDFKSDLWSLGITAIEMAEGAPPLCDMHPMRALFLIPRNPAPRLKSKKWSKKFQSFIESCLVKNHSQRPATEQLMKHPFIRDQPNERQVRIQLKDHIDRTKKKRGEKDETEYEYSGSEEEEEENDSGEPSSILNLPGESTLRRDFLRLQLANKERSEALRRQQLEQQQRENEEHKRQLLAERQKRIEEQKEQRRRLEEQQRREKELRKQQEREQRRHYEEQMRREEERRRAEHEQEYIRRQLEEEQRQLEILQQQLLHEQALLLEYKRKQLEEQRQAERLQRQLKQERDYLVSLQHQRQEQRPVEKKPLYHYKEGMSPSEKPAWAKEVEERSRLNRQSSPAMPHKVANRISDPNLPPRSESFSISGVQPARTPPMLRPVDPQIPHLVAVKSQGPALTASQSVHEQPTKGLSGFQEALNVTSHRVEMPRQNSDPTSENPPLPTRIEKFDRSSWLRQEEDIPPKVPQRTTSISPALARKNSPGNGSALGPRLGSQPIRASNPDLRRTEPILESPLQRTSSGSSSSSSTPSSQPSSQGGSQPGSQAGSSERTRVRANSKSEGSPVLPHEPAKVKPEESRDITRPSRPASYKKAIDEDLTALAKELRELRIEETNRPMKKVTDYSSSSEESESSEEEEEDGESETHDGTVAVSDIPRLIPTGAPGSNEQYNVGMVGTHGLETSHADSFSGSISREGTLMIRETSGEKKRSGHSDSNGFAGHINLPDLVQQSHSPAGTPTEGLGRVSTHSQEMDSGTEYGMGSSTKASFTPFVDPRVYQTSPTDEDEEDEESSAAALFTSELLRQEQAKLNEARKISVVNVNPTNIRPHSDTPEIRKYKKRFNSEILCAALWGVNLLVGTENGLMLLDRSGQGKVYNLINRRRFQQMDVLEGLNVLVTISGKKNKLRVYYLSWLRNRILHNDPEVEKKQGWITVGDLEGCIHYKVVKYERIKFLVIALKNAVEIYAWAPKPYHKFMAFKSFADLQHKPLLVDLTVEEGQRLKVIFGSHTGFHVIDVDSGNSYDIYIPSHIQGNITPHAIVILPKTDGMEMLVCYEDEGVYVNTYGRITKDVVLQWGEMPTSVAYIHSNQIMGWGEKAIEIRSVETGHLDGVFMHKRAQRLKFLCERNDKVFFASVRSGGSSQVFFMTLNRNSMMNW
TGFBR2, sequence (P37173 23-567, species assumed): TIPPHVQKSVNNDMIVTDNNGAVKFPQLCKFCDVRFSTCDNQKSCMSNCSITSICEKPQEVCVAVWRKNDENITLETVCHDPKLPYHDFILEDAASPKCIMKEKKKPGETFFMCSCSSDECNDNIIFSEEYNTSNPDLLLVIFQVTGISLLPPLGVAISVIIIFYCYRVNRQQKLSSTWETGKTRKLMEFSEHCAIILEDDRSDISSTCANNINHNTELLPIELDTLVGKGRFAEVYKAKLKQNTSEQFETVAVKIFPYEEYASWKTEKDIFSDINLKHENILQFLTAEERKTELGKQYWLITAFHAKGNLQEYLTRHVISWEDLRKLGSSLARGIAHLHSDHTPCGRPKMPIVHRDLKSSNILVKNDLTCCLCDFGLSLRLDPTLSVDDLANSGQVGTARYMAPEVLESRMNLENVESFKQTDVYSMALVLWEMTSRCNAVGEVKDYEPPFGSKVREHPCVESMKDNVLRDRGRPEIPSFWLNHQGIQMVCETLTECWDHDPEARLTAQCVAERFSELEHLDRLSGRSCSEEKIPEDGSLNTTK
RIPK2, sequence (O43353 whole entry, species assumed): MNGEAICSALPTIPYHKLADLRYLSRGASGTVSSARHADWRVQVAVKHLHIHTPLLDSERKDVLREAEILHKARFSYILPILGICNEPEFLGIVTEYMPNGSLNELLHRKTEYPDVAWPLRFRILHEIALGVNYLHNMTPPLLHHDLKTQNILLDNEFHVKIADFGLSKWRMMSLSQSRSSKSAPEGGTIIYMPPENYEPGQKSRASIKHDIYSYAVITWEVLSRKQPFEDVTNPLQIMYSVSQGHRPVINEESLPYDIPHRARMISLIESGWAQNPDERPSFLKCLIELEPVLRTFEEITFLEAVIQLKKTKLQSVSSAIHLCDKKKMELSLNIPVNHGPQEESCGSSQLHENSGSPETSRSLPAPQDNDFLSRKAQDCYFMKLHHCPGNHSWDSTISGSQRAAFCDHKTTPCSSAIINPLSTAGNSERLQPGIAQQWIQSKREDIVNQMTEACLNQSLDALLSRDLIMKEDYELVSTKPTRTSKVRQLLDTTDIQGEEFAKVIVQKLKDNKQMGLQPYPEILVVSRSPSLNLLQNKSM
CDK19, sequence (Q9BWU1 whole entry, species assumed): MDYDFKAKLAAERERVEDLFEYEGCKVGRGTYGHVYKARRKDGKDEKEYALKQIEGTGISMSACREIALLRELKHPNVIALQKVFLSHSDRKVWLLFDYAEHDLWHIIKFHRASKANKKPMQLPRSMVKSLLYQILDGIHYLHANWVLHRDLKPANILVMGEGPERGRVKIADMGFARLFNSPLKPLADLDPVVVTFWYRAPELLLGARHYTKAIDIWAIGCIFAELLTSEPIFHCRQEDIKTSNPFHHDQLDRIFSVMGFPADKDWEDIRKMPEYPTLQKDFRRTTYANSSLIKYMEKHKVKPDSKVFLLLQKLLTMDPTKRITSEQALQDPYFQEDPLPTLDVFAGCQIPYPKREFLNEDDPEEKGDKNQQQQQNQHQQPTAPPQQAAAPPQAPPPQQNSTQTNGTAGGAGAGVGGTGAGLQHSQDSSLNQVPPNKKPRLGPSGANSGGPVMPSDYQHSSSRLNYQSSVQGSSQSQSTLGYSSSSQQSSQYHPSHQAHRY
CDK19, sequence (P24863 whole entry partner, species assumed): as the sequence (P24863 whole entry partner, species assumed) above

CN(C)C(=O)Cn1cc(-c2ccc(-c3cncc4ccccc34)cc2)cn1 [BI-1347]
proportion of β-cells (INS+NKX6.1+), representative dot plot ([1]; 3 nM, instead of ALK5iII, stages 5-7): 39.8%

NC(=O)c1ccc(-c2nc(-c3ccc4c(c3)OCO4)c(-c3ccccn3)[nH]2)cc1 [SB431542]
Ames Mutagenicity [2]: did not have mutagenic potential; also recorded: negative

Cc1cccc(-c2[nH]c(C(C)(C)C)nc2-c2ccc3nccnc3c2)n1 [SB525334]
Ames Mutagenicity [2]: Negative; also recorded: did not have mutagenic potential

O=C(/C=C/c1cnccc1-c1cnn(C2CC2)c1)Nc1ccc(CN2CCOCC2)cc1 [TR06096159]
IC50 (CDK8 [3]): 6.4 nM

Cl.Nc1c2ccccc2nc2ccccc12.O [9-AA, 9-aminoacridine hydrochloride monohydrate]
TA1537, -S9 # colony ([4]; positive control, 80 μg): 169

CN1CCN(C(=O)c2ccc3cc(CCNc4ncnc5ccc(C#N)cc45)ccc3c2)CC1 [Senexin B]
proportion of β-cells (INS+NKX6.1+), representative dot plot ([1]; 0.1 μM, instead of ALK5iII, stages 5-7): 39.7%

c1cncc(-c2n[nH]cc2-c2cnc3ccccc3n2)c1 [TR04411299]
Ames Mutagenicity [2]: positive result
TA1537, -S9 # colony ([4]; 78.1 μg/plate, DMSO control 8 (ALK5 inhibitor II) / 9 (TR04411299)): 5
TA1537, -S9 # colony ([4]; 156 μg/plate, DMSO control 8 / 9): 9
TA1537, -S9 # colony ([4]; 313 μg/plate, DMSO control 8 / 9): 21
TA1537, -S9 # colony ([4]; 625 μg/plate, DMSO control 8 / 9): 45
TA1537, -S9 # colony ([4]; 1250 μg/plate, DMSO control 8 / 9): 82
TA1537, -S9 # colony ([4]; 2500 μg/plate, DMSO control 8 / 9): 128
TA1537, -S9 # colony ([4]; 5000 μg/plate, DMSO control 8 / 9): 194
ALK5 inhibition (ALK5): No and did not inhibit ALK5

COc1ccc2nc3cc(Cl)ccc3c(NCCCNCCCl)c2c1.Cl.Cl [ICR, [6-Chloro-9-(3-[2-chloroethylamino]propylamino)-2-methoxyacridine] dihydrochloride]
TA1537, -S9 # colony ([4]; positive control, 1.0 μg): 1804

Cc1cccc(-c2n[nH]cc2-c2ccc3ncccc3n2)n1 [ALK5iII]
Ames mutagenicity test ([2]; Fig. 1b flowchart, absence of S9, positive = mean revertant colonies at least twofold the negative control in any strain): (+)
Ames Mutagenicity [2]: Positive
Ames response in the TA1537 strain [4]: positive response
TA1537, -S9 # colony ([4]; Salmonella typhimurium): 8
ALK5 inhibition (ALK5): Yes
IC50 (CDK19): 66.1 nM
IC50 (CDK8 [5]): 158 nM
IC50 (RIPK2): 151 nM
IC50 (TGFBR2): 107 nM
IC50 (TNIK): 661 nM
proportion of β-cells (INS+NKX6.1+), representative dot plot ([1]; 10 μM ALK5iII at stages 5-7): 35.0%

Cn1cc(-c2ccnc(O)c2/C=C/C(=O)Nc2ccc(CN3CCOCC3)cc2)cn1 [TR05978156]
β-cell induction / differentiation efficiency ([1]; result in words, compound replaces ALK5iII at stages 5-7): did not induce β-cells efficiently
IC50 (CDK8 [3]): > 10000 nM
